This note sets out measurements from ChEMBL document CHEMBL1147633, “Structure-activity relationships of a novel class of endothelin receptor selective antagonists; 6-carboxy-2-isopropylamino-5,7-diarylcyclopenteno[1,2-b]pyridines” (Bioorg Med Chem Lett, 2004).

The test system of data set [1] is Rattus norvegicus. Description: Plasma levels of compound was evaluated in rats after 4 hr of oral administration at 3 mg/kg. The data set is classed as functional, organism-based. Further details: dose 3 mg/kg.
For data set [2], the system named is Rattus norvegicus. Put plainly: Plasma levels of compound was evaluated in rats after 8 hr of oral administration at 3 mg/kg. It counts as functional, organism-based. Further details: dose 3 mg/kg.
The subject of data set [3] is Rattus norvegicus. Description: Plasma levels of compound was evaluated in rats after 1 hr of oral administration at 3 mg/kg. It counts as functional, organism-based. More on the design: dose 3 mg/kg.
Data set [4] addresses Endothelin receptor, ET-A/ET-B (Homo sapiens) (UniProt P24530+P25101). Description: Selectivity ratio of inhibitory activity towards endothelin receptor A to endothelin receptor B (ETB/ETA). It counts as protein assay.
The nature of data set [5]: Bioavailability in rat (dose 1 mg/kg i.v.). Particulars: in vivo, iv. The data set is classed as ADME, organism-based.
The target of data set [6] is T1, Endothelin receptor type B (Homo sapiens, UniProt P24530).
T1 sequence (P24530 whole entry): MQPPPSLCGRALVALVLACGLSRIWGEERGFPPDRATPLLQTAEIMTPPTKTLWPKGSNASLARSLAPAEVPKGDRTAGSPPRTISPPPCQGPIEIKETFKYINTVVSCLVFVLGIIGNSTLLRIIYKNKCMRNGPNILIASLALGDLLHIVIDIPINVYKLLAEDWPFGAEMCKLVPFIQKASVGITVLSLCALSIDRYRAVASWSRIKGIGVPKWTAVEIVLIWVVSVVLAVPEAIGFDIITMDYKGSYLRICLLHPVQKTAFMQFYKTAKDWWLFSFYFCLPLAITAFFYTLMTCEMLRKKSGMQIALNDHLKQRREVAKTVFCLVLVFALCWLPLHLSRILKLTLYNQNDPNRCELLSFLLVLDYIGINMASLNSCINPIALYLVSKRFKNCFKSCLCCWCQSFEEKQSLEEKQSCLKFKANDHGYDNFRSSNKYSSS
Put plainly: Inhibitory activity against [125I]ET1 binding to human endothelin B receptor.

The next data set concerns the target T2, Endothelin-1 receptor (Homo sapiens, UniProt P25101).
T2 sequence (P25101 whole entry): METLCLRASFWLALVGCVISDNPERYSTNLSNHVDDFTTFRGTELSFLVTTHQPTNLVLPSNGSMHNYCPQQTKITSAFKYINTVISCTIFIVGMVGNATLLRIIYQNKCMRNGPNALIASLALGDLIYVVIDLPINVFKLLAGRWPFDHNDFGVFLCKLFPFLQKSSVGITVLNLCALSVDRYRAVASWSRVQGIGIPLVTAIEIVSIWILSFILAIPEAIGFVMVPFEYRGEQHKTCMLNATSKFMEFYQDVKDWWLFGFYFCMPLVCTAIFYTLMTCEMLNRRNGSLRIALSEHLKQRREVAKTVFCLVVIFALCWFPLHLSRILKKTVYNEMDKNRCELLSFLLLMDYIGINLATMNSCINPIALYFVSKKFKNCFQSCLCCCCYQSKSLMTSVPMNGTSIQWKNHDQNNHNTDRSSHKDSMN
Put plainly: Inhibitory activity against [125I]ET1 binding to human endothelin A receptor.

In a further data set the test system is Mus musculus. Put plainly: In vivo efficacy of compound was determined in mouse after intravenous administration. It counts as functional.
For the next data set, the species on record is Oryctolagus cuniculus. Put plainly: Antagonistic activity towards endothelin A receptor was evaluated using the rabbit iliac artery in presence of 3% human serum albumin. The data set is classed as functional.
A short description of data set [7]: Bioavailability in rat (dose 3 mg/kg p.o.). It counts as ADME, organism-based. The settings on record: in vivo, po.

SMILES strings stand for the structures.

Consider `COCC(C)Cc1cc(OC)ccc1[C@@H]1c2nc(NC(C)C)ccc2[C@H](c2ccc3c(c2)OCO3)[C@H]1C(=O)O` (stereo in doubt; form 1) [listing 1 of 2 here], for which the Plasma level with Rattus norvegicus [1] worked out at 81 nM; with Rattus norvegicus [2], 52 nM; with Rattus norvegicus [3], 220 nM. The Selectivity ratio in [4] stood at 1900.
As to `COc1ccc([C@@H]2c3nc(NC(C)C)ccc3[C@H](c3ccc4c(c3)OCO4)[C@H]2C(=O)O)c(CC(C)CO)c1` (stereo in doubt; form 1) [listing 1 of 2 here], the bioavailability in data set [5] was 7.6%. Moreover, the IC50 stood at 54 nM in data set [6] and 0.041 nM at Endothelin-1 receptor. This molecule also came in with an AD50 in the data set with Mus musculus of 0.034 MPK. Further, the PKB in the data set filed under Oryctolagus cuniculus amounted to 8.33.
The molecule `COc1ccc([C@@H]2c3nc(NC(C)C)ccc3[C@H](c3ccc4c(c3)OCO4)[C@H]2C(=O)O)c(CO)c1` gave a bioavailability in [7] of 57%. Also, the IC50 is 62 nM in [6] and 0.062 nM at Endothelin-1 receptor. This molecule also returned an AD50 with Mus musculus of 0.12 MPK. Also, the PKB in the data set listed under Oryctolagus cuniculus is 7.76. Moreover, the Plasma level in the data set on Rattus norvegicus [1] amounted to 94 nM; in the data set with Rattus norvegicus [2], 19 nM; in the data set with Rattus norvegicus [3] it was 130 nM. Further, the Selectivity ratio in [4] turned out to be 1000.
With `COCC(C)Cc1cc(OC)ccc1[C@@H]1c2nc(NC(C)C)ccc2[C@H](c2ccc3c(c2)OCO3)[C@H]1C(=O)O` (stereo in doubt; form 1) [listing 2 of 2 here], the bioavailability in [5] and in data set [7] was 70% each time. Besides, the IC50 in [6] was 48 nM; at Endothelin-1 receptor, 0.025 nM. Also, in the data set on Mus musculus, the AD50 is reported as 0.039 MPK. Besides, the PKB in the data set filed under Oryctolagus cuniculus is listed as 8.33.
Consider `COc1ccc([C@@H]2c3nc(NC(C)C)ccc3[C@H](c3ccc4c(c3)OCO4)[C@H]2C(=O)O)c(CC(C)CO)c1` (stereo in doubt; form 1) [listing 2 of 2 here], for which the Plasma level was 22 nM with Rattus norvegicus [1], 11 nM with Rattus norvegicus [2] and 110 nM with Rattus norvegicus [3]. The Selectivity ratio in [4] is 1300.
Take `COc1ccc([C@@H]2c3nc(NC(C)C)ccc3[C@H](c3ccc4c(c3)OCO4)[C@H]2C(=O)O)c(CN(C)C(C)=O)c1`: the IC50 in data set [6] is 43 nM; on Endothelin-1 receptor it was 0.027 nM. Further, the PKB in the data set listed under Oryctolagus cuniculus worked out at 8.97. Further, the Plasma level in the data set with Rattus norvegicus [1] was 3 nM; with Rattus norvegicus [2], 0.4 nM; in the data set with Rattus norvegicus [3], 2 nM. In data set [4], the Selectivity ratio is 1600.

The term bioavailability denotes dose-corrected exposure relative to a reference, in per cent. A low value points to little systemic uptake. As usually defined, the IC50 is the concentration at which inhibition is half-maximal. Lower therefore signals greater potency.
